How the values were obtained:
5-HT6 = biological target: T1, 5-HT6 (Homo sapiens, UniProt P50406); assay: PDSP primary binding 5-HT6; settings: 1.5 h; primary binding, 10,000 nM; last figure of the line = mean of the 4 before it; read-out: 5-HT6, PDSP raw data, mean
T1 construct: purchased NIMH Psychoactive Drug Screening Program (PDSP)
Description: (§1) To determine if any off-target receptor-binding effects are present, all the novel ligands were sent to the National Institute of Mental Health (NIMH), Psychoactive Drug Screening Program (PDSP). The ligands were screened over a panel of 47 receptors, ion channels, and transporters to determine any other possible interactions with […]. The hERG-binding was also determined. […] No binding of the test compounds to calcium channels was observed. […] It is necessary to screen the compounds for hERG-binding during the early process of drug discovery. The unintentional binding of many drugs to hERG can cause blockade of hERG K+ channels in the heart, which can cause many side effects including cardiac arrhythmias and sudden death. […] All of the α5 imidazodiazepines were tested for hERG-binding.
(§2) The NIMH PDSP assay protocol book [https://kidbdev.med.unc.edu/databases/PDSP%20Protocols%20II%202013-03-28.pdf accessed on 23 April 2023]. describes the protocols for primary and secondary radio-ligand binding assays. These assays were carried out in a final volume of 125 µL per well in the appropriate binding buffer.
(§3) The binding of a ligand to a receptor, ion channel, or transporter was determined in the […] of 10 µM of the appropriate reference compound. […] Plates were incubated in the dark for 90 min at rt, and the reactions were stopped by vacuum filtration onto 0.3% polyethyleneimine (PEI) soaked 96-well filter mats using a 96-well Filtermateharvester. This was followed by three washes with cold PBS buffer. Radioactivity was then counted on a Microbeta counter. Nonlinear regression was used to analyze the data with N = 6 replicates.

Alpha1B = biological target: T2, Alpha1B (Homo sapiens, UniProt P35368); assay: PDSP primary binding Alpha1B; settings: 1.5 h; primary binding, 10,000 nM; last figure of the line = mean of the 4 before it; read-out: Alpha1B, PDSP raw data, mean
T2 construct: purchased NIMH Psychoactive Drug Screening Program (PDSP)
T2 sequence (P35368 1-520): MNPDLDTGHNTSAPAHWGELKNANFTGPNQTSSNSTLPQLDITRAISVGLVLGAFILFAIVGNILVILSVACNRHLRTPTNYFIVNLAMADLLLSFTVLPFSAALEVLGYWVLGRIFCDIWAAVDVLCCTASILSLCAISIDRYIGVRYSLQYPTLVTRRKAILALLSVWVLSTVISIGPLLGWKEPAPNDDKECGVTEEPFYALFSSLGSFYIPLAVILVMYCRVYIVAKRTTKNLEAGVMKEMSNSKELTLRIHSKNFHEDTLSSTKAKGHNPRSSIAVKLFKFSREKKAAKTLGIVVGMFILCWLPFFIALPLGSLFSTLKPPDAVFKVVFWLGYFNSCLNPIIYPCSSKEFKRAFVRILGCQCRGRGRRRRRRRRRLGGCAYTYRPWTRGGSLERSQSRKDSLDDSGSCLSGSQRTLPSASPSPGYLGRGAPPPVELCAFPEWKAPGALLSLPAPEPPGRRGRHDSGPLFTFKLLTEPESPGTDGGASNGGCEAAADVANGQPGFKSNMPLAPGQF
Description: as §1, §2, §3

D4 = biological target: T3, D4 (Homo sapiens, UniProt P21917); assay: PDSP primary binding D4; settings: 1.5 h; primary binding, 10,000 nM; last figure of the line = mean of the 4 before it; read-out: D4, PDSP raw data, mean
T3 construct: purchased NIMH Psychoactive Drug Screening Program (PDSP)
T3 sequence (P21917 1-419): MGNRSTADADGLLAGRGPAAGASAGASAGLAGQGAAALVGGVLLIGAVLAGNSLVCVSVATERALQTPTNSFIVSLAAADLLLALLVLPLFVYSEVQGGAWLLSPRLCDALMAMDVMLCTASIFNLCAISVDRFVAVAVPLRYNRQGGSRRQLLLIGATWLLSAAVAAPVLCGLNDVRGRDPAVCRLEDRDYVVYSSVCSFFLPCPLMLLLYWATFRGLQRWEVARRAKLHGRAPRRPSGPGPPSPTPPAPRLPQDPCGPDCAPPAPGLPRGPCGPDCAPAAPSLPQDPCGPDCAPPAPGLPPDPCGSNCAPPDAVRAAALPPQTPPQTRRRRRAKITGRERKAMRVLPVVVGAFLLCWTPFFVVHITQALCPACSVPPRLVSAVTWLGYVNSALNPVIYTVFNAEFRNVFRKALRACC
Description: as §1, §2, §3

M4 = biological target: T4, M4 (Homo sapiens, UniProt P08173); assay: PDSP primary binding M4; settings: primary binding, 10,000 nM; last figure of the line = mean of the 4 before it; read-out: M4, PDSP raw data, mean
T4 construct: purchased NIMH Psychoactive Drug Screening Program (PDSP)
T4 sequence (P08173 1-479): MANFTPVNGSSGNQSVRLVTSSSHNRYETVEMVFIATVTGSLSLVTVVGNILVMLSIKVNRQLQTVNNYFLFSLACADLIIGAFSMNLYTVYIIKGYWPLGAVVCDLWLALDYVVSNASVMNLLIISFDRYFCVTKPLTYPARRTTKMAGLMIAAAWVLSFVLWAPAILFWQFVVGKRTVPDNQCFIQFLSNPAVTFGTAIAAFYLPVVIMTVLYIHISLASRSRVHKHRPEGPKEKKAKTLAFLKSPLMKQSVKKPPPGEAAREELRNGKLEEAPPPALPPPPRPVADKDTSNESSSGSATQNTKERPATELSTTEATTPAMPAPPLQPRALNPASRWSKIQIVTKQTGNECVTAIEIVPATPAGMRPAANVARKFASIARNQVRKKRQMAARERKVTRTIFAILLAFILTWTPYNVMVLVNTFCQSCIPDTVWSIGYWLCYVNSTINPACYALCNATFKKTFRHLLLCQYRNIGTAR
Description: as §1, §2, §3

Sigma 2 = assay: PDSP primary binding Sigma 2; settings: primary binding, 10,000 nM; last figure of the line = mean of the 4 before it
Description: as §1, §2, §3

Alpha4Beta2 = biological target: T5, Alpha4Beta2 (Rattus norvegicus, UniProt P09483+P12390); assay: PDSP primary binding Alpha4Beta2; settings: primary binding, 10,000 nM; last figure of the line = mean of the 4 before it; read-out: Alpha4Beta2, PDSP raw data, mean
T5 construct: purchased NIMH Psychoactive Drug Screening Program (PDSP)
Description: as §1, §2, §3

T1 sequence (P50406 whole entry): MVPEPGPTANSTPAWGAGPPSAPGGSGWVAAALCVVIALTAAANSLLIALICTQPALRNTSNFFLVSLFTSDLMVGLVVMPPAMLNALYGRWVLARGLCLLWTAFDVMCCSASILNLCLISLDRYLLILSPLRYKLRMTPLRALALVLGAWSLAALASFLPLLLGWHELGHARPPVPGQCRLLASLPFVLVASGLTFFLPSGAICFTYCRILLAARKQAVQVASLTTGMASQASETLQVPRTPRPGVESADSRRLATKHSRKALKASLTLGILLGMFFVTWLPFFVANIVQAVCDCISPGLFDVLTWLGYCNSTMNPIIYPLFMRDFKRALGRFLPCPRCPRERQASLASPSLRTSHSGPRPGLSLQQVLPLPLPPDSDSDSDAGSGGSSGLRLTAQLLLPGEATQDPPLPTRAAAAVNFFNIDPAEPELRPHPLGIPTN
T5 sequence (P09483 31-630): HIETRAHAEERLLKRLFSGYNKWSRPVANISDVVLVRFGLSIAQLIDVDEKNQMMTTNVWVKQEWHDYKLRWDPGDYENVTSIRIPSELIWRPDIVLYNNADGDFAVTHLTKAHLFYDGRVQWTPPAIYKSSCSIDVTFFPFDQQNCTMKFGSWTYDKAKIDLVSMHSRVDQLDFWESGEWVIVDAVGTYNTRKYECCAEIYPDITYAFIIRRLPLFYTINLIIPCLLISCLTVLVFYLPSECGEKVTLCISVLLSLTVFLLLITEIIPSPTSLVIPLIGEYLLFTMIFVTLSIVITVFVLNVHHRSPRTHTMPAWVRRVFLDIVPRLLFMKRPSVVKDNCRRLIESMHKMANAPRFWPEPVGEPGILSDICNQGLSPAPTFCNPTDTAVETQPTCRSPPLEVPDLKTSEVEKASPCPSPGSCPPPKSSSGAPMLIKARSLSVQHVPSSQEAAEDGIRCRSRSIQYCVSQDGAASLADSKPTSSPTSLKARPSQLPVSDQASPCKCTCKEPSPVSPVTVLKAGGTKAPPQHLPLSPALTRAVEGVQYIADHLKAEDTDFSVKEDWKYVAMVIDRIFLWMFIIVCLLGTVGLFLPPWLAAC
T5 sequence (P12390 25-500): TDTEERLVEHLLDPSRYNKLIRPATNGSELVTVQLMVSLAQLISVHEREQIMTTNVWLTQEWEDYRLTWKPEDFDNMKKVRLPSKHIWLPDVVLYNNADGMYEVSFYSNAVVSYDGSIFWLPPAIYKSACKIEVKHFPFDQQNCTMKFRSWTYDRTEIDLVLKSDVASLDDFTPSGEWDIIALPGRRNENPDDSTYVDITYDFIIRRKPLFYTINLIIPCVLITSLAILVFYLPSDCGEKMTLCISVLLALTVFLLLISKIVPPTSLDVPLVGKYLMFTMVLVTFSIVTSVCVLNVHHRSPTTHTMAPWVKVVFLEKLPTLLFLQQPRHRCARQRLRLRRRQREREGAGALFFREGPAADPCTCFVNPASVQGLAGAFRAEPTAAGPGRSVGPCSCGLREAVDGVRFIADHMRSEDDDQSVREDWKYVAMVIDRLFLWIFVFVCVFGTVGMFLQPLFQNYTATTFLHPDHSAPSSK

Compound	inhibition at 10 µM (5-HT6) [%]	inhibition at 10 µM (Alpha1B) [%]	inhibition at 10 µM (D4) [%]	inhibition at 10 µM (M4) [%]	Sigma 2, PDSP raw data, mean (Sigma 2) [%]	inhibition at 10 µM (Alpha4Beta2) [%]
C#Cc1ccc2c(c1)C(c1ccccn1)=N[C@@H](C)c1c(C(=O)NC)ncn1-2 [Compound 23, (S)-8-Ethynyl-N,4-dimethyl-6-(pyridin-2′-yl)-4H-benzo[f]imidazo[1,5-a][1,4]diazepine-3-carboxamide]	18.1	22.2	3.79	2.93	8.85	-4.27
C[C@H]1N=C(c2ccccc2F)c2cc(-c3ccccc3)ccc2-n2cnc(C(=O)N(C)C)c21 [Compound 5, (R)-6-(2′-Fluorophenyl)-N,N,4-trimethyl-8-phenyl-4H-benzo[f]imidazo[1,5-a][1,4]diazepine-3-carboxamide]	24.6	-15.3	-4.45	-3.29	43.63	-1.65
CCc1noc(-c2ncn3c2CN=C(c2ccccc2F)c2cc(C4CC4)ccc2-3)n1 [Compound 44, 5-(8-Cyclopropyl-6-(2′-fluorophenyl)-4H-benzo[f]imidazo[1,5-a][1,4]diazepin-3-yl)-3-ethyl-1,2,4-oxadiazole]	27.6	6.87	-4.07	-4.92	74.98	-1.95
CCc1noc(-c2ncn3c2[C@@H](C)N=C(c2ccccc2F)c2cc(C4CC4)ccc2-3)n1 [Compound 46, (R)-5-(8-Cyclopropyl-6-(2′-fluorophenyl)-4-methyl-4H-benzo[f]imidazo[1,5-a][1,4]diazepin-3-yl)-3-ethyl-1,2,4-oxadiazole]	71.5	9.31	10.6	-0.8	89.78	4.59
C#Cc1ccc2c(c1)C(c1ccccn1)=N[C@@H](C)c1c(C(=O)N(C)C)ncn1-2 [Compound 31, (S)-8-Ethynyl-N,N,4-trimethyl-6-(pyridin-2′-yl)-4H-benzo[f]imidazo[1,5-a][1,4]diazepine-3-carboxamide]	18.1	11	-0.38	3.2	-12.63	-0.84
CC(C)c1noc(-c2ncn3c2[C@@H](C)N=C(c2ccccc2F)c2cc(Cl)ccc2-3)n1 [Compound 37, (R)-5-(8-Chloro-6-(2′-fluorophenyl)-4-methyl-4H-benzo[f]imidazo[1,5-a][1,4]diazepin-3-yl)-3-isopropyl-1,2,4-oxadiazole]	-1.65	4.27	-10.1	-4.01	76.17	6.16
CCc1noc(-c2ncn3c2[C@@H](C)N=C(c2ccccc2F)c2cc(-c4ccccc4)ccc2-3)n1 [Compound 35, (R)-3-Ethyl-5-(6-(2′-fluorophenyl)-4-methyl-8-phenyl-4H-benzo[f]imidazo[1,5-a][1,4]diazepin-3-yl)-1,2,4-oxadiazole]	10.3	8.69	6.05	-4.16	85.36	0.7
C#Cc1ccc2c(c1)C(c1ccccc1F)=N[C@H](C)c1c(C(=S)N(C)C)ncn1-2 [Compound 33, (R)-8-Ethynyl-6-(2′-fluorophenyl)-N,N,4-trimethyl-4H-benzo[f]imidazo[1,5-a][1,4]diazepine-3-carbothioamide]	24.6	-15.3	-4.45	-3.29	43.63	-1.65
C[C@H]1N=C(c2ccccc2F)c2cc(Cl)ccc2-n2cnc(-c3nc(C4CC4)no3)c21 [Compound 38, (R)-5-(8-Chloro-6-(2′-fluorophenyl)-4-methyl-4H-benzo[f]imidazo[1,5-a][1,4]diazepin-3-yl)-3-cyclopropyl-1,2,4-oxadiazole]	-6.37	10.8	-3.44	-8.66	80.86	1.67
C#Cc1ccc2c(c1)C(c1ccccc1Cl)=N[C@H](C)c1c(C(=O)NC)ncn1-2 [Compound 21, (R)-6-(2′-Chlorophenyl)-8-ethynyl-N,4-dimethyl-4H-benzo[f]imidazo[1,5-a][1,4]diazepine-3-carboxamide]	-8.24	-6.66	2.12	-16.9	1.04	4.88
C#Cc1ccc2c(c1)C(c1ccccc1Cl)=N[C@H](C)c1c(C(=O)N(C)CC)ncn1-2 [Compound 29]	14.9	19.8	1.36	4.91	13.69	-1.16
CCc1noc(-c2ncn3c2[C@@H](C)N=C(c2ccccc2F)c2cc(Cl)ccc2-3)n1 [Compound 36, (R)-5-(8-Chloro-6-(2′-fluorophenyl)-4-methyl-4H-benzo[f]imidazo[1,5-a][1,4]diazepin-3-yl)-3-ethyl-1,2,4-oxadiazole]	10.8	-0.79	-4.5	-5.41	81.41	-1.38
